In patent US20090238808A1, “Process for the identification of novel enzyme interacting compounds” (priority 2005, published 2009):

Key:
EphB4 = EphB4 (Homo sapiens, UniProt P54760); assay: Biochemical kinase activity assay (Invitrogen SelectScreen); settings: read-out: % inhibition, EphB4
FAK/PTK2 = FAK/PTK2 (Homo sapiens, UniProt Q05397); assay: as above; settings: read-out: % inhibition, FAK
[1] = tested on: phosphorylation sites on kinobeads-captured proteins, K562 cells; assay: Phosphorylation analysis of kinobeads-captured proteins from drug-treated K562 cells; assay type: cell-based, human; settings: of 379 sites on 136 proteins identified
Description: To explore not only the direct targets of the drugs but also their downstream effects on signaling pathways, aliquots of the iTRAQ-labeled peptide mixtures from kinobeads precipitates were subjected to phosphopeptide enrichment and subsequent identification and quantification by mass spectrometry. […] Indeed, most of these proteins have been implicated in signaling events downstream of ABL (FIG. 10b)^16, 18. For all three drugs together, we found down-regulation of 20 sites on 13 proteins (FIGS. 22 and 23).
Mass Spectrometry and Data analysis.
LC-MS/MS for IMAC samples were performed twice.

KHS1 = KHS1 (Homo sapiens, UniProt Q9Y4K4); assay: Biochemical kinase activity assay (Invitrogen SelectScreen); settings: read-out: % inhibition, KHS1
GCK = GCK (Homo sapiens, UniProt Q12851); assay: as above; settings: read-out: % inhibition, GCK
FER = FER (Homo sapiens, UniProt P16591); assay: as above; settings: read-out: % inhibition, FER
MER = molecular target: T1, MER (Homo sapiens, UniProt Q12866); assay: as above; settings: read-out: % inhibition, MER
T1 sequence (Q12866 21-999): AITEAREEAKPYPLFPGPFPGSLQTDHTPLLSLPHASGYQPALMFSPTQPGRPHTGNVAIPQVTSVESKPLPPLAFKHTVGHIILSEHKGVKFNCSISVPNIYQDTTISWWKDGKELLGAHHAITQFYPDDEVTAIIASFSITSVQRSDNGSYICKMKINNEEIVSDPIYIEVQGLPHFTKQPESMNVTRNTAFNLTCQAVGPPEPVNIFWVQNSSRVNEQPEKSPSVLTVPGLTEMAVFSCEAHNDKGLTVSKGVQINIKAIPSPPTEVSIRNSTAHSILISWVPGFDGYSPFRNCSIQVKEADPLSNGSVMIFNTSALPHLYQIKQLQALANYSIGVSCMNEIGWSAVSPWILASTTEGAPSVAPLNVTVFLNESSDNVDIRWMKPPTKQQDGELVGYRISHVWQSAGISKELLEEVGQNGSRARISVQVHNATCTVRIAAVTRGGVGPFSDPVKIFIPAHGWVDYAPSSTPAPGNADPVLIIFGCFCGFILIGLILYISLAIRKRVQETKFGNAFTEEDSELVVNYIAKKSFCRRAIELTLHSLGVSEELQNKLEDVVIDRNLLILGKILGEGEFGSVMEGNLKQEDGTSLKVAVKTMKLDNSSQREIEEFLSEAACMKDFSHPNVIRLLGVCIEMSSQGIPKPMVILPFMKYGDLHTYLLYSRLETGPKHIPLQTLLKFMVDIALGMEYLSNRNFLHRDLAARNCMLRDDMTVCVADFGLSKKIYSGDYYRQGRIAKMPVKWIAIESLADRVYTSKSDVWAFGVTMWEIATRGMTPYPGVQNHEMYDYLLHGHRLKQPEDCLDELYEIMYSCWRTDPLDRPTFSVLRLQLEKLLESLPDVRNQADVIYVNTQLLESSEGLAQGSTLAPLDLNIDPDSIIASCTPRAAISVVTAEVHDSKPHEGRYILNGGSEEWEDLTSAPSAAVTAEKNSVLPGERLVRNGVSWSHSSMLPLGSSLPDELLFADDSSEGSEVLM

BTK = BTK (Homo sapiens, UniProt Q06187); assay: as above; settings: read-out: % inhibition, BTK
BTK, sequence (Q06187 whole entry): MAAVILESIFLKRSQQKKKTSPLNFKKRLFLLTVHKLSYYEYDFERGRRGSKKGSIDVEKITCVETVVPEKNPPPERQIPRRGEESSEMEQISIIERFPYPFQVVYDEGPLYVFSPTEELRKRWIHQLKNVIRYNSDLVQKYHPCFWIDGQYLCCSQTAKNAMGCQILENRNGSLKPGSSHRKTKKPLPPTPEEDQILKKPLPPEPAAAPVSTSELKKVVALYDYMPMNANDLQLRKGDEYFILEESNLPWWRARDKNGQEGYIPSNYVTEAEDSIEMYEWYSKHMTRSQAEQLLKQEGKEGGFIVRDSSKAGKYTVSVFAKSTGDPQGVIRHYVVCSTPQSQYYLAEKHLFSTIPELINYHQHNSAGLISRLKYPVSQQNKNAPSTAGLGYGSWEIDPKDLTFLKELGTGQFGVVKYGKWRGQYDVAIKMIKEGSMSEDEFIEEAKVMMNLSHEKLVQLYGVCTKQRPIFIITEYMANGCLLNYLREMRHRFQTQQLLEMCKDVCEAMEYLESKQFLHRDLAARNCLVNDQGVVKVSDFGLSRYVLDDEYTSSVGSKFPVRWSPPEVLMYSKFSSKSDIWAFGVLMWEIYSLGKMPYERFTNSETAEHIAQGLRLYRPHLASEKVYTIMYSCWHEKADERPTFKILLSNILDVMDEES

KHS1, sequence (Q9Y4K4 whole entry): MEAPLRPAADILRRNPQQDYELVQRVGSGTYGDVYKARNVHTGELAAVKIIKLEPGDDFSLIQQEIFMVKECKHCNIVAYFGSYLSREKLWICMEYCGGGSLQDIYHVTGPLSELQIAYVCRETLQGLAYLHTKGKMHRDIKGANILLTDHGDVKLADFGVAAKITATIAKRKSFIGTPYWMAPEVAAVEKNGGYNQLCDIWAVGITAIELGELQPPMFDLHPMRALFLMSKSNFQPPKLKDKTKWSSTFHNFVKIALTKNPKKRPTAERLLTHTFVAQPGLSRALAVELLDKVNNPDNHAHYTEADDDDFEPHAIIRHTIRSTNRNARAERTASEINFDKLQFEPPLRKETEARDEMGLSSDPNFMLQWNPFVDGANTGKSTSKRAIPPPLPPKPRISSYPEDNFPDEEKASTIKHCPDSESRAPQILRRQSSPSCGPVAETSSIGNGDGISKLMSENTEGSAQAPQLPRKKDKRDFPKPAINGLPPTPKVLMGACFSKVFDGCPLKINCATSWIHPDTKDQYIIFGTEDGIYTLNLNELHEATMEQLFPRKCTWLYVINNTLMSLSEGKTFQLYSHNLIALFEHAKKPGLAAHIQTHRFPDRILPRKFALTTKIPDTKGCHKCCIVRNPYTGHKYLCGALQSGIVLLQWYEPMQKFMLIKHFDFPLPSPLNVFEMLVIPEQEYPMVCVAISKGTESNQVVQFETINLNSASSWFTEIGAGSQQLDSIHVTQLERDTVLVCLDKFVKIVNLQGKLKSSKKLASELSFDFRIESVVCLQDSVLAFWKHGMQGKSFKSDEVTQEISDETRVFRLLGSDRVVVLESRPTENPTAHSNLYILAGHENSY
FER, sequence (P16591 whole entry): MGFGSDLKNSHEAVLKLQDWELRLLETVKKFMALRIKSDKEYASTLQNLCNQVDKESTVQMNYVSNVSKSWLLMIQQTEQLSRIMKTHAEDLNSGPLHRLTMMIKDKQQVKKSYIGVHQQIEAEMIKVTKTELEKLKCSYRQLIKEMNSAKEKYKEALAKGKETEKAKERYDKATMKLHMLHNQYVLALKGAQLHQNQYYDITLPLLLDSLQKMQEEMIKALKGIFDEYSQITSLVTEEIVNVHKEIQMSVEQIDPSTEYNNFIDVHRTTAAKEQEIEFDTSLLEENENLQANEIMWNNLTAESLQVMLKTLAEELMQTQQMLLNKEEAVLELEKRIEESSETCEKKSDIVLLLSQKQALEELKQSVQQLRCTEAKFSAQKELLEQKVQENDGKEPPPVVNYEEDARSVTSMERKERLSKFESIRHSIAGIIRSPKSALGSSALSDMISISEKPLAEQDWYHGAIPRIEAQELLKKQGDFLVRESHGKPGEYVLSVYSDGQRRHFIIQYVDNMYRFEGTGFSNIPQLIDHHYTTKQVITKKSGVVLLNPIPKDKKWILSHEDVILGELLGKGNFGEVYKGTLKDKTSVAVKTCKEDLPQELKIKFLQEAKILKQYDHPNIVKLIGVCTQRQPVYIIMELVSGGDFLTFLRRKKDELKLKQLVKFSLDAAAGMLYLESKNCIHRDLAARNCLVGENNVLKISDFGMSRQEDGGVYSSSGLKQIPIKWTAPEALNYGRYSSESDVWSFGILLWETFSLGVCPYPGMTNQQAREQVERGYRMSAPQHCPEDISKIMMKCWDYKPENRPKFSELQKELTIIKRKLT
EphB4, sequence (P54760 16-987): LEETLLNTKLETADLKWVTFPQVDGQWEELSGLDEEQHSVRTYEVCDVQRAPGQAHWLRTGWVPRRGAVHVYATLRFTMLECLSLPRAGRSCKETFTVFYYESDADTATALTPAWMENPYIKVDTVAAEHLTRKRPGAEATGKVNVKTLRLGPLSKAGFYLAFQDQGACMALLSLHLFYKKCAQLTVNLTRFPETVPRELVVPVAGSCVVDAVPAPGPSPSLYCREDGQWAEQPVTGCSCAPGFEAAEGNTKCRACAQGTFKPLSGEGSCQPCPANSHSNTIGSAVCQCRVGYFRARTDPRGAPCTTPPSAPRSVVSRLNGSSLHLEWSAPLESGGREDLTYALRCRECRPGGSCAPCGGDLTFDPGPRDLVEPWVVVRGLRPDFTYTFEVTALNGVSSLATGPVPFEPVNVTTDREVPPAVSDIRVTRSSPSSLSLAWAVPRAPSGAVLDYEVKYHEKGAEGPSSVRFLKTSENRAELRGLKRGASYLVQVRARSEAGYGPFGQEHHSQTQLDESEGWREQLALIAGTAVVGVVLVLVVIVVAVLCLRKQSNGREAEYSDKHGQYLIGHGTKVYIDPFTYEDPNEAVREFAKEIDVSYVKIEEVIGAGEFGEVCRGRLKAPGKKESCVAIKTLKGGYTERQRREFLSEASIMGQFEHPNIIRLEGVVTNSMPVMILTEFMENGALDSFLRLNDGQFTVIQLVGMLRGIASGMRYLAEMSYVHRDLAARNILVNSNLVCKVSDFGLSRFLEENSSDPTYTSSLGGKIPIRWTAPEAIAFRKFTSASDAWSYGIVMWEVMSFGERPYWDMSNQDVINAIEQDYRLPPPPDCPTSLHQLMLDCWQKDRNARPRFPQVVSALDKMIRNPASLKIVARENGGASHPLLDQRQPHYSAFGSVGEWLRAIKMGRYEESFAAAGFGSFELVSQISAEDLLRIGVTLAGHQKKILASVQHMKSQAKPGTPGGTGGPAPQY
GCK, sequence (Q12851 whole entry): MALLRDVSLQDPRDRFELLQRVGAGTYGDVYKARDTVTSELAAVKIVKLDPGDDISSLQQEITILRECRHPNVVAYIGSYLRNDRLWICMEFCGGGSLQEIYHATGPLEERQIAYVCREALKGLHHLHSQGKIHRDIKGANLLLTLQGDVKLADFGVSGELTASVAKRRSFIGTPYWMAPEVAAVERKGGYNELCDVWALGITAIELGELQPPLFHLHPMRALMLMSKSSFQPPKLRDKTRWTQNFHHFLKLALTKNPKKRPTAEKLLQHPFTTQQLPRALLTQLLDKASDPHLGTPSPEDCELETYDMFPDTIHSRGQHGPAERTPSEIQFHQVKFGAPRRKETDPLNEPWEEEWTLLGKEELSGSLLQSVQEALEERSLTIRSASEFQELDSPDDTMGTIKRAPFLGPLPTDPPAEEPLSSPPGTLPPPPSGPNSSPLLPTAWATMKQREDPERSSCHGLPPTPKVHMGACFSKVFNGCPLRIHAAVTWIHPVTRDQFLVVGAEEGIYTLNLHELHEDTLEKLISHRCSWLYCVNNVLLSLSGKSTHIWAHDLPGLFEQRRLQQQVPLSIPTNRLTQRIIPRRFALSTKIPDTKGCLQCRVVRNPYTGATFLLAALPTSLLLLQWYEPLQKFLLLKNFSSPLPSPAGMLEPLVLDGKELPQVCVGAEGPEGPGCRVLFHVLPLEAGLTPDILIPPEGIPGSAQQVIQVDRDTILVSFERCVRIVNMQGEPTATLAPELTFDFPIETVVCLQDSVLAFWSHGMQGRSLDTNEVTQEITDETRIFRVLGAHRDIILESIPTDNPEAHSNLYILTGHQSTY

What does the source list for Cc1ccc(NC(=O)c2ccc(CN3CCN(C)CC3)cc2)cc1Nc1nccc(-c2cccnc2)n1 [imatinib]?
inhibition at 5 µM (EphB4): 5%; inhibition at 5 µM (FAK/PTK2): 2%; number of phosphorylation sites with substantial down-regulation [1]: Eight; inhibition at 5 µM (KHS1): 14%; inhibition at 5 µM (GCK): 10%; inhibition at 5 µM (FER): 14%; inhibition at 5 µM (MER): 11%; inhibition at 5 µM (BTK): 4%
